Experimental data as given in the NIST ThermoML archive (doi:10.1016/j.jct.2008.07.009).
± gives the expanded uncertainty stated by the source.

Experiment: xn = mol fraction of the nth substance listed
Settings: 101 kPa, Liquid, Vibrating tube method

CC(=O)N1CCOCC1 [4-acetylmorpholine] + Cc1cc(C)cc(C)c1
mass density [kg/m3]
Settings | 293.15 K | 303.15 K | 313.15 K | 323.15 K | 333.15 K | 343.15 K
x2 = 0.0654 | 1094.6 ± 6.1 | 1086.8 ± 6.1 | 1077.7 ± 6.1 | 1069.3 ± 6.1 | 1060.8 ± 6.1 | 1052.2 ± 6
x2 = 0.1128 | 1081.2 ± 6 | 1073.4 ± 6 | 1063.8 ± 6 | 1055.4 ± 6 | 1046.9 ± 6 | 1038.5 ± 6
x2 = 0.1763 | 1063.5 ± 6 | 1055.7 ± 6 | 1045.7 ± 6 | 1037.3 ± 6 | 1028.9 ± 6 | 1020.4 ± 6
x2 = 0.2254 | 1050.2 ± 6 | 1042.3 ± 6 | 1032 ± 6 | 1023.5 ± 6 | 1015.1 ± 6 | 1006.7 ± 6
x2 = 0.2845 | 1034.5 ± 6 | 1026.5 ± 6 | 1015.8 ± 6 | 1007.4 ± 6 | 999 ± 6 | 990.6 ± 6
x2 = 0.3241 | 1024.2 ± 6 | 1016.2 ± 6 | 1005.2 ± 6 | 996.8 ± 6 | 988.4 ± 6 | 980 ± 6
x2 = 0.3837 | 1008.9 ± 6 | 1000.9 ± 6 | 989.5 ± 6 | 981 ± 6 | 972.7 ± 6 | 964.3 ± 6
x2 = 0.4266 | 998.1 ± 6 | 990.1 ± 6 | 978.3 ± 6 | 969.9 ± 6 | 961.6 ± 6 | 953.2 ± 6
x2 = 0.4978 | 980.4 ± 6 | 972.3 ± 6 | 960.2 ± 6 | 951.9 ± 6 | 943.5 ± 6 | 935.2 ± 6
x2 = 0.5436 | 969.2 ± 6 | 961.1 ± 6 | 948.8 ± 6 | 940.4 ± 6 | 932.1 ± 6 | 923.8 ± 6
x2 = 0.6116 | 952.8 ± 6 | 944.8 ± 6 | 932.1 ± 6 | 923.9 ± 6 | 915.6 ± 6 | 907.3 ± 6
x2 = 0.6984 | 932.5 ± 6 | 924.4 ± 6 | 911.4 ± 6 | 903.1 ± 6 | 894.9 ± 6 | 886.8 ± 6
x2 = 0.7452 | 921.6 ± 6 | 913.6 ± 6 | 900.4 ± 6 | 892.2 ± 6 | 884 ± 6 | 875.9 ± 6
x2 = 0.7944 | 910.4 ± 6 | 902.3 ± 6 | 888.9 ± 6 | 880.8 ± 6 | 872.7 ± 6 | 864.6 ± 6
x2 = 0.8541 | 897 ± 6 | 889 ± 6 | 875.4 ± 6 | 867.2 ± 6 | 859.1 ± 6 | 851 ± 6
x2 = 0.8932 | 888.3 ± 6 | 880.2 ± 6 | 866.5 ± 6 | 858.4 ± 6 | 850.3 ± 6 | 842.2 ± 6
x2 = 0.9423 | 877.5 ± 6 | 869.5 ± 6 | 855.6 ± 6 | 847.5 ± 6 | 839.4 ± 6 | 831.3 ± 6
x2 = 0.9833 | 868.7 ± 6 | 860.6 ± 6 | 846.5 ± 6 | 838.5 ± 6 | 830.4 ± 6 | 822.3 ± 6

CC(=O)N1CCOCC1 [4-acetylmorpholine] + CCc1ccccc1
mass density [kg/m3]
Settings | 293.15 K | 303.15 K | 313.15 K | 323.15 K | 333.15 K | 343.15 K
x2 = 0.0456 | 1102.4 ± 6.1 | 1094.5 ± 6.1 | 1085.9 ± 6.1 | 1077.3 ± 6.1 | 1068.9 ± 6.1 | 1060.3 ± 6.1
x2 = 0.1256 | 1082.6 ± 6 | 1074.7 ± 6 | 1066.2 ± 6 | 1057.7 ± 6 | 1049.2 ± 6 | 1040.6 ± 6
x2 = 0.1853 | 1068 ± 6 | 1060 ± 6 | 1051.5 ± 6 | 1042.9 ± 6 | 1034.3 ± 6 | 1025.7 ± 6
x2 = 0.2457 | 1053.2 ± 6 | 1045.2 ± 6 | 1036.6 ± 6 | 1027.9 ± 6 | 1019.4 ± 6 | 1010.6 ± 6
x2 = 0.2984 | 1040.5 ± 6 | 1032.4 ± 6 | 1023.7 ± 6 | 1015 ± 6 | 1006.3 ± 6 | 997.5 ± 6
x2 = 0.3486 | 1028.3 ± 6 | 1020.1 ± 6 | 1011.4 ± 6 | 1002.6 ± 6 | 993.8 ± 6 | 985 ± 6
x2 = 0.3899 | 1018.3 ± 6 | 1010 ± 6 | 1001.2 ± 6 | 992.4 ± 6 | 983.6 ± 6 | 974.7 ± 6
x2 = 0.4452 | 1004.8 ± 6 | 996.5 ± 6 | 987.7 ± 6 | 978.9 ± 6 | 969.9 ± 6 | 960.9 ± 6
x2 = 0.4843 | 995.3 ± 6 | 986.9 ± 6 | 978 ± 6 | 969.2 ± 6 | 960.2 ± 6 | 951.2 ± 6
x2 = 0.5433 | 980.8 ± 6 | 972.3 ± 6 | 963.5 ± 6 | 954.6 ± 6 | 945.6 ± 6 | 936.6 ± 6
x2 = 0.5894 | 969.5 ± 6 | 961 ± 6 | 952.1 ± 6 | 943.2 ± 6 | 934.2 ± 6 | 925.2 ± 6
x2 = 0.6555 | 953.2 ± 6 | 944.7 ± 6 | 935.8 ± 6 | 926.9 ± 6 | 917.8 ± 6 | 908.8 ± 6
x2 = 0.6983 | 942.6 ± 6 | 934 ± 6 | 925.1 ± 6 | 916.2 ± 6 | 907.2 ± 6 | 898.3 ± 6
x2 = 0.7452 | 931 ± 6 | 922.4 ± 6 | 913.5 ± 6 | 904.6 ± 6 | 895.6 ± 6 | 886.6 ± 6
x2 = 0.7984 | 917.7 ± 6 | 909 ± 6 | 900.2 ± 6 | 891.2 ± 6 | 882.3 ± 6 | 873.4 ± 6
x2 = 0.8422 | 906.7 ± 6 | 898 ± 6 | 889.3 ± 6 | 880.4 ± 6 | 871.4 ± 6 | 862.4 ± 6
x2 = 0.9328 | 884.2 ± 6 | 875.5 ± 6 | 866.7 ± 6 | 857.8 ± 6 | 848.7 ± 6 | 839.7 ± 6
x2 = 0.9784 | 872.8 ± 6 | 864.1 ± 6 | 855.2 ± 6 | 846.2 ± 6 | 837.1 ± 6 | 828 ± 6
